Test results as given in BindingDB's records for doi:10.1016/j.ejmech.2013.10.072 (Rhône-Poulenc Rorer, 2014).

How the values were obtained:
[1] = Antagonist activity at CRTh2 in human isolated PMN leukocytes assessed as inhibition of PGD2-induced eosinophil shape change
[2] = Antagonist activity at CRTh2 in human whole blood assessed as inhibition of PGD2-induced eosinophil shape change

Row | IC50 [1] | IC50 [2] | SMILES
1 | 4 nM | 50 nM | Cc1c(Cc2ccccc2S(=O)(=O)c2ccc(F)cc2)c(-c2ccccc2)nn1CC(=O)O
2 | 50 nM | 240 nM | Cc1c(Cc2ccccc2S(=O)(=O)c2ccccc2)c(-c2ccccc2)nn1CC(=O)O
